Experiments:
Format in all cases: biochemical
Pim2 [1] = molecular target: T1, Pim2 (Homo sapiens, UniProt Q9P1W9); test: Pim2 assay analogous to Example A performed under Km ATP conditions; conditions: Km ATP conditions rather than 1 mM ATP
T1 construct: purchased Invitrogen PV3649
Protocol: (§1) Pim-2 kinase assay—20 μL reactions were run in white 384 well polystyrene plates dotted with 0.8 μL compound/DMSO in the assay buffer (50 mM Tris, pH 7.5, 0.01% Tween-20, 5 mM mgCl2, 0.01% BSA, 5 mM DTT), containing 0.05 μM Fluorescein-labeled CREBtide peptide substrate (Invitrogen PV3508), 1 mM ATP, and 1 nM enzyme (Invitrogen PV3649) for 2 h at 25° C. Reactions were stopped by addition of 10 μL TR-FRET Dilution Buffer (Invitrogen PV3574) with 30 mM EDTA and 1.5 nM LanthaScreen Tb-CREB pSer133 antibody (Invitrogen PV3566). After 30 min. incubation at room temperature, plates were read on a PHERAstar FS plate reader (BMG Labtech).
Although the above in vitro assays are conducted at 1 mM ATP compounds can also be evaluated for potency and in vitro activity against PIM targets utilizing Km conditions, where the concentration of ATP is set to the Km value and the assay is more sensitive to PIM inhibition activity.

Pim2 [2] = molecular target: T1, Pim2; test: Pim-2 kinase assay (Pim enzyme assays, Example A); conditions: 1 mM ATP; read-out: Pim2 IC50
Protocol: as §1

Pim-1 = molecular target: T2, Pim-1 (Homo sapiens, UniProt P11309); test: Pim-1 kinase assay (Pim enzyme assays, Example A); conditions: 1 mM ATP; read-out: Pim1 IC50
T2 construct: purchased Invitrogen PV3503
Protocol: (§2) Pim-1 and Pim-3 kinase assays-20 μL reactions were run in white 384 well polystyrene plates dotted with 0.8 μL compound/DMSO in the assay buffer (50 mM Tris, pH 7.5, 0.01% Tween-20, 5 mM mgCl2, 0.01% BSA, 5 mM DTT), containing 0.05 μM Biotin-labeled BAD peptide substrate (AnaSpec 62269), 1 mM ATP, and […] (Pim-1, Invitrogen PV3503) or […] (Pim-3, Millipore 14-738) enzyme for 1 h at 25° C. Reactions were stopped by addition of 10 μL STOP Buffer (150 mM Tris, pH=7.5, 150 mM NaCl, 75 mM EDTA, 0.01% Tween-20, 0.3% BSA,) supplemented with Phospho-Bad (Ser 12) Antibody (Cell Signaling 9291) diluted 666-fold, and Streptavidin donor beads (PerkinElmer 6760002) along with Protein-A acceptor beads (PerkinElmer 6760137) at 15 μg/mL each. Supplementation of the STOP buffer with beads and stopping the reactions were done under reduced light. Prior to the stopping reactions STOP buffer with beads was preincubated for 1 h in the dark at room temperature. After stopping the reactions, plates were incubated for 1 h in the dark at room temperature before reading on a PHERAstar FS plate reader (BMG Labtech) under reduced light.

Pim-3 = molecular target: T3, Pim-3 (Homo sapiens, UniProt Q86V86); test: Pim-3 kinase assay (Pim enzyme assays, Example A); conditions: 1 mM ATP; read-out: Pim3 IC50
T3 construct: purchased Millipore 14-738
Protocol: as §2

T2 sequence (P11309 whole entry): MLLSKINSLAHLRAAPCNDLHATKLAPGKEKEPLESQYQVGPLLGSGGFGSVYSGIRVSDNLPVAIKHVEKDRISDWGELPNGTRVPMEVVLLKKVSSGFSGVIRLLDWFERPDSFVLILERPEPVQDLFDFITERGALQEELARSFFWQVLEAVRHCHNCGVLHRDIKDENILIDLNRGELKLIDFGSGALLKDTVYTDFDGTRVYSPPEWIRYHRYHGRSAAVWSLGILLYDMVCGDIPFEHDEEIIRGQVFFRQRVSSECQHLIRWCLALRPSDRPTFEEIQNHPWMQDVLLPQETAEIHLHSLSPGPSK
T1 sequence (Q9P1W9 whole entry): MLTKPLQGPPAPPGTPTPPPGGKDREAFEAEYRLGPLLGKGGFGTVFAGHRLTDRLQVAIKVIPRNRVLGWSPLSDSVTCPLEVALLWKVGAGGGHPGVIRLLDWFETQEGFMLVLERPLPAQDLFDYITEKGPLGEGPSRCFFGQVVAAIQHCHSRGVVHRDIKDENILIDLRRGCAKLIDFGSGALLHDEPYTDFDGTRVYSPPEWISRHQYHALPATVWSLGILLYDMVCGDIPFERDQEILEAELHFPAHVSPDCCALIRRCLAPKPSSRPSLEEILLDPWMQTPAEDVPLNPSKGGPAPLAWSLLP

| Compound | IC50 (Pim2 [1]) | IC50 (Pim2 [2]) | IC50 (Pim-1) | IC50 (Pim-3) |
| --- | --- | --- | --- | --- |
| CCc1ccc2cc(N)c(C(=O)Nc3cnc4c(c3N3CCC[C@H](N)C3)CCC4O)nc2c1 (single isomer, unassigned) [22 isomer 1] | 100 to 1000 nM | > 2000 nM | > 40 nM | > 40 nM |
| NC(=O)c1ccccc1-c1ccc2cc(N)c(C(=O)Nc3cnccc3N3CCC[C@H](N)C3)nc2c1 [Example 6, 3-Amino-7-[2-(aminocarbonyl)phenyl]-N-{4-[(3S)-3-aminopiperidin-1-yl]pyridin-3-yl}quinoline-2-carboxamide] | < 100 nM | > 2000 nM | > 40 nM | > 40 nM |
| C[C@@H]1C[C@H](N)CN(c2ccncc2NC(=O)c2nc3cc(N4CCCCC4=O)ccc3cc2N)C1 [Example 45, 3-Amino-N-{4-[(3S,5R)-3-amino-5-methylpiperidin-1-yl]pyridin-3-yl}-7-(2-oxopiperidin-1-yl)quinoline-2-carboxamide] |  | 100 to 1000 nM | ≤ 100 nM | ≤ 100 nM |
| C[C@@H]1C[C@H](N)CN(c2ccncc2NC(=O)c2nc3cc(N4CCN(C)C(=O)C4)ccc3cc2N)C1 [Example 46, 3-Amino-N-{4-[(3S,5R)-3-amino-5-methylpiperidin-1-yl]pyridin-3-yl}-7-(4-methyl-3-oxopiperazin-1-yl)quinoline-2-carboxamide] |  | 100 to 1000 nM | ≤ 100 nM | ≤ 100 nM |
| C[C@@H]1C[C@H](N)CN(c2ccncc2NC(=O)c2nc3cc(N4CCNC(=O)C4)ccc3cc2N)C1 [Example 47, 3-Amino-N-{4-[(3S,5R)-3-amino-5-methylpiperidin-1-yl]pyridin-3-yl}-7-(3-oxopiperazin-1-yl)quinoline-2-carboxamide] |  | 100 to 1000 nM | ≤ 100 nM | ≤ 100 nM |
| C[C@H]1CN(c2ccncc2NC(=O)c2nc3cc(N4CCN(C)C(=O)C4)ccc3cc2N)C[C@@H](N)[C@@H]1O [Example 48, 3-Amino-N-{4-[(3R,4R,5S)-3-amino-4-hydroxy-5-methylpiperidin-1-yl]pyridin-3-yl}-7-(4-methyl-3-oxopiperazin-1-yl)quinoline-2-carboxamide] |  | ≤ 100 nM | ≤ 100 nM | ≤ 100 nM |
| C[C@H]1CN(c2ccncc2NC(=O)c2nc3cc(N4CCCCC4=O)ccc3cc2N)C[C@@H](N)[C@@H]1O [Example 49, 3-Amino-N-{4-[(3R,4R,5S)-3-amino-4-hydroxy-5-methylpiperidin-1-yl]pyridin-3-yl}-7-(2-oxopiperidin-1-yl)quinoline-2-carboxamide] |  | 100 to 1000 nM | ≤ 100 nM | ≤ 100 nM |
| C[C@@H]1C[C@H](N)CN(c2ccncc2NC(=O)c2nc3cc(N4CCOCC4=O)ccc3cc2N)C1 [Example 50, 3-Amino-N-{4-[(3S,5R)-3-amino-5-methylpiperidin-1-yl]pyridin-3-yl}-7-(3-oxomorpholin-4-yl)quinoline-2-carboxamide] |  | 100 to 1000 nM | ≤ 100 nM | ≤ 100 nM |
| C[C@H]1CN(c2ccncc2NC(=O)c2nc3cc(N4CCOCC4=O)ccc3cc2N)C[C@@H](N)[C@@H]1O [Example 51, 3-Amino-N-{4-[(3R,4R,5S)-3-amino-4-hydroxy-5-methylpiperidin-1-yl]pyridin-3-yl}-7-(3-oxomorpholin-4-yl)quinoline-2-carboxamide] |  | 1000 to 10000 nM | ≤ 100 nM | ≤ 100 nM |
| C[C@H]1CN(c2ccncc2NC(=O)c2nc3cc(N4CCN(C)C(=O)C4)ccc3cc2N)C[C@@H](N)[C@H]1n1ccnn1 [Example 52, 3-Amino-N-{4-[(3R,4S,5S)-3-amino-5-methyl-4-(1H-1,2,3-triazol-1-yl)piperidin-1-yl]pyridin-3-yl}-7-(4-methyl-3-oxopiperazin-1-yl)quinoline-2-carboxamide] |  | > 2000 nM | ≤ 100 nM | ≤ 100 nM |
| C[C@H]1CN(c2ccncc2NC(=O)c2nc3cc(C4CCOCC4)ccc3cc2N)C[C@@H](N)[C@H]1n1ccnn1 [Example 53, 3-Amino-N-{4-[(3R,4S,5S)-3-amino-5-methyl-4-(1H-1,2,3-triazol-1-yl)piperidin-1-yl]pyridin-3-yl}-7-(tetrahydro-2H-pyran-4-yl)quinoline-2-carboxamide] |  | 1000 to 10000 nM | ≤ 100 nM | ≤ 100 nM |
| C[C@H]1CN(c2ccncc2NC(=O)c2nc3cc(N4CCN(C)CC4)ccc3cc2N)C[C@@H](N)[C@H]1n1ccnn1 [Example 54, 3-Amino-N-{4-[(3R,4S,5S)-3-amino-5-methyl-4-(1H-1,2,3-triazol-1-yl)piperidin-1-yl]pyridin-3-yl}-7-(4-methylpiperazin-1-yl)quinoline-2-carboxamide] |  | > 2000 nM | ≤ 100 nM | ≤ 100 nM |
| C[C@H]1CN(c2ccncc2NC(=O)c2nc3cc(N4CCOCC4)ccc3cc2N)C[C@@H](N)[C@H]1n1ccnn1 [Example 55, 3-Amino-N-{4-[(3R,4S,5S)-3-amino-5-methyl-4-(1H-1,2,3-triazol-1-yl)piperidin-1-yl]pyridin-3-yl}-7-morpholin-4-ylquinoline-2-carboxamide] |  | > 2000 nM | ≤ 100 nM | ≤ 100 nM |
| C[C@H]1CN(c2ccncc2NC(=O)c2nc3cc(C4CCN(C)CC4)ccc3cc2N)C[C@@H](N)[C@H]1n1ccnn1 [Example 56, 3-Amino-N-{4-[(3R,4S,5S)-3-amino-5-methyl-4-(1H-1,2,3-triazol-1-yl)piperidin-1-yl]pyridin-3-yl}-7-(1-methylpiperidin-4-yl)quinoline-2-carboxamide] |  | 1000 to 10000 nM | ≤ 100 nM | ≤ 100 nM |
| CCc1ccc2cc(N)c(C(=O)Nc3cnccc3N3C[C@@H](N)[C@@H](n4ccnn4)[C@@H](C)C3)nc2c1 [Example 57, 3-Amino-N-{4-[(3R,4S,5S)-3-amino-5-methyl-4-(1H-1,2,3-triazol-1-yl)piperidin-1-yl]pyridin-3-yl}-7-ethylquinoline-2-carboxamide] |  | 100 to 1000 nM | ≤ 100 nM | ≤ 100 nM |
| CCc1ccc2cc(N)c(C(=O)Nc3cnccc3N3C[C@@H](N)[C@@H](NC(=O)OC)[C@@H](C)C3)nc2c1 [Example 58, Methyl [(3R,4S,5S)-3-amino-1-(3-{[(3-amino-7-ethylquinolin-2-yl)carbonyl]amino}pyridin-4-yl)-5-methylpiperidin-4-yl]carbamate] |  | 100 to 1000 nM | ≤ 100 nM | ≤ 100 nM |
| COC(=O)N[C@@H]1[C@H](N)CN(c2ccncc2NC(=O)c2nc3cc(N4CCOCC4)ccc3cc2N)C[C@@H]1C [Example 59, Methyl [(3R,4S,5S)-3-amino-1-(3-{[(3-amino-7-morpholin-4-ylquinolin-2-yl)carbonyl]amino}pyridin-4-yl)-5-methylpiperidin-4-yl]carbamate] |  | 1000 to 10000 nM | ≤ 100 nM | ≤ 100 nM |
| COC(=O)N[C@@H]1[C@H](N)CN(c2ccncc2NC(=O)c2nc3cc(N4CCN(C)CC4)ccc3cc2N)C[C@@H]1C [Example 60, Methyl {(3R,4S,5S)-3-amino-1-[3-({[3-amino-7-(4-methylpiperazin-1-yl)quinolin-2-yl]carbonyl}amino)pyridin-4-yl]-5-methylpiperidin-4-yl}carbamate] |  | 1000 to 10000 nM | ≤ 100 nM | ≤ 100 nM |
| COC(=O)N[C@@H]1[C@H](N)CN(c2ccncc2NC(=O)c2nc3cc(C4CCOCC4)ccc3cc2N)C[C@@H]1C [Example 61, Methyl {(3R,4S,5S)-3-amino-1-[3-({[3-amino-7-(tetrahydro-2H-pyran-4-yl)quinolin-2-yl]carbonyl}amino)pyridin-4-yl]-5-methylpiperidin-4-yl}carbamate] |  | 100 to 1000 nM | ≤ 100 nM | ≤ 100 nM |
| COC(=O)N[C@@H]1[C@H](N)CN(c2ccncc2NC(=O)c2nc3cc(C4CCN(C)CC4)ccc3cc2N)C[C@@H]1C [Example 62, Methyl {(3R,4S,5S)-3-amino-1-[3-({[3-amino-7-(1-methylpiperidin-4-yl)quinolin-2-yl]carbonyl}amino)pyridin-4-yl]-5-methylpiperidin-4-yl}carbamate] |  | 1000 to 10000 nM | ≤ 100 nM | ≤ 100 nM |
